The structures appear in SMILES notation. A value given as a limit tells only on which side of the number the result lay.

The IC50 is the concentration that inhibits the measured activity by half.

The test system of the first assay is Aβ1-42 production. The experiment in a line: Cellular assay for inhibition of Aβ1-42 production (H4 APP751 SWE clone 8.20). It is filed as cell-based. The following applies: 19 h, H4 APP751 SWE clone 8.20 cells, 19 h incubation; class symbols; read-out: Activity Rating (Aβ42 cellular IC50). Summed up: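 Viewlux signal read-out; IC50 by curve fit. Sandwich: 565 anti-Aβ42 neoepitope (Wallac conjugate, 0.8 ng/well) + 26D6 anti-N-terminus (APC, 75 ng/well), in Tris-HCl 40 mM pH 7.4/0.2% BSA, o/n 4 °C. Cells exposed to compound 19 h, 37 °C, 5% CO2.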
Regarding `CNc1nc(Nc2ccc3occc3c2)nc2c1CCC2c1ccccc1` (centres unmarked) [Example 250, N2-(benzofuran-5-yl)-N4-methyl-7-phenyl-6,7-dihydro-5H-cyclopenta[d]pyrimidine-2,4-diamine], the IC50 was over 1000 nM. `COc1cc(Nc2nc3c(c(N4CCN(C)CC4)n2)CCC3c2ccc(F)cc2)ccc1-n1cnc(Cl)c1` (centres unmarked) [Example 30, N-(4-(4-chloro-1H-imidazol-1-yl)-3-methoxyphenyl)-7-(4-fluorophenyl)-4-(4-methylpiperazin-1-yl)-6,7-dihydro-5H-cyclopenta[d]pyrimidin-2-amine]: the IC50 fell in the range of 10 to 100 nM. Take `CNc1nc(Nc2ccc(-n3cnc(C)n3)c(OC)c2)nc2c1CC[C@H]2c1cccc(OC)c1` (single isomer, unassigned) [Example 272A]: the IC50 lay in the range of 10 to 100 nM. With `COc1cc(Nc2nc3c(c(N4CCC4)n2)CCC3c2ccc(OC(F)(F)F)cc2)ccc1-n1cnc(Cl)c1` (racemic) [Example 101, 4-(Azetidin-1-yl)-N-(4-(4-chloro-1H-imidazol-1-yl)-3-methoxyphenyl)-7-(4-(trifluoromethoxy)phenyl)-6,7-dihydro-5H-cyclopenta[d]pyrimidin-2-amine], the IC50 was in the range of 10 to 100 nM. Take `CCNc1nc(Nc2ccc(-n3ncnc3C)c(F)c2)nc2c1CN(S(C)(=O)=O)CC2c1ccc(F)cc1` (centres unmarked) [Example 157, N4-ethyl-N2-(3-fluoro-4-(5-methyl-1H-1,2,4-triazol-1-yl)phenyl)-6-(methylsulfonyl)-8-(4-fluorophenyl)-5,6,7,8-tetrahydropyrido[4,3-d]pyrimidine-2,4-diamine]: the IC50 fell in the range of 10 to 100 nM.

Consider `CNc1nc(Nc2ccc(S(C)(=O)=O)cc2)nc2c1CCC2c1ccccc1` (centres unmarked) [Example 235, N4-methyl-N2-(4-(methylsulfonyl)phenyl)-7-phenyl-6,7-dihydro-5H-cyclopenta[d]pyrimidine-2,4-diamine], for which the IC50 fell in the range of 100 to 1000 nM. As to `COc1cc(Nc2nc(NC(C)C)c3c(n2)C(c2ccccc2)CC3)ccc1-n1cnc(Cl)c1` (centres unmarked) [Example 10, N2-(4-(4-chloro-1H-imidazol-1-yl)-3-methoxyphenyl)-N4-isopropyl-7-phenyl-6,7-dihydro-5H-cyclopenta[d]pyrimidine-2,4-diamine], the IC50 was 1.5 to 9.9 nM.

Consider `CNc1nc(Nc2ccc(-n3cnc(Cl)c3)c(OC)c2)nc2c1CCC2c1ccc(F)cc1F` (single isomer, unassigned) [Example 109A, N^2-(4-(4-Chloro-1H-imidazol-1-yl)-3-methoxyphenyl)-7-(2,4-difluorophenyl)-N^4-methyl-6,7-dihydro-5H-cyclopenta[d]pyrimidine-2,4-diamine], for which the IC50 fell in the range of 1.5 to 9.9 nM. In the case of `COc1cc(Nc2nc3c(c(N(C)C)n2)CCC3c2ccc(F)cc2)ccc1-n1cnc(Cl)c1` (racemic) [Example 46, N^2-(4-(4-Chloro-1H-imidazol-1-yl)-3-methoxyphenyl)-7-(4-fluorophenyl)-N^4,N^4-dimethyl-6,7-dihydro-5H-cyclopenta[d]pyrimidine-2,4-diamine], the IC50 fell in the range of 1.5 to 9.9 nM.

`CCN(C)c1nc(Nc2ccc(-n3cnc(Cl)c3)c(OC)c2)nc2c1CN(C)CC2c1ccc(F)cc1` (centres unmarked) [Example 165, N2-(4-(4-chloro-1H-imidazol-1-yl)-3-methoxyphenyl)-N4-ethyl-8-(4-fluorophenyl)-N4,6-dimethyl-5,6,7,8-tetrahydropyrido[4,3-d]pyrimidine-2,4-diamine]: the IC50 was in the range of 10 to 100 nM. With `CNc1nc(Nc2ccc(-n3cnc(C)n3)c(OC)c2)nc2c1COCC2c1ccc(Cl)cc1` (centres unmarked) [Example 71, 8-(4-chlorophenyl)-N^2-(3-methoxy-4-(3-methyl-1H-1,2,4-triazol-1-yl)phenyl)-N^4-methyl-7,8-dihydro-5H-pyrano[4,3-d]pyrimidine-2,4-diamine], the IC50 lay within 10 to 100 nM. As to `CNc1nc(Nc2ccc(C(F)(F)F)cc2)nc2c1CCC2c1ccccc1` (centres unmarked) [Example 239, N4-methyl-7-phenyl-N2-(4-(trifluoromethyl)phenyl)-6,7-dihydro-5H-cyclopenta[d]pyrimidine-2,4-diamine], the IC50 was in the range of 100 to 1000 nM.

`CNc1nc(Nc2ccc(-n3ncnc3C)c(OC)c2)nc2c1CC[C@H]2c1ccc(F)cc1` (single isomer, unassigned) [Example 264A]: the IC50 fell in the range of 1.5 to 9.9 nM. Consider `COc1cc(Nc2nc3c(c(N4CC(F)(F)C4)n2)COC3c2ccc(F)cc2)ccc1-n1cnc(Cl)c1` (racemic) [Example 80, N-(4-(4-chloro-1H-imidazol-1-yl)-3-methoxyphenyl)-4-(3,3-difluoroazetidin-1-yl)-7-(4-fluorophenyl)-5,7-dihydrofuro[3,4-d]pyrimidin-2-amine], for which the half-inhibitory concentration (IC50) lay within 10 to 100 nM.

The same assay, now with this note: 19 h, H4 APP751 SWE clone 8.20 cells, 19 h incubation; read-out: Activity Rating (Aβ42 cellular IC50), numeric value.
With `COc1cc(Nc2nc3c(c(N(C)C(C)=O)n2)CCC3c2ccccc2)ccc1-n1cnc(Cl)c1` (centres unmarked) [Example 212, N-(2-(4-(4-chloro-1H-imidazol-1-yl)-3-methoxyphenylamino)-7-phenyl-6,7-dihydro-5H-cyclopenta[d]pyrimidin-4-yl)-N-methylacetamide], the IC50 was determined as 33 nM. Take `COc1cc(Nc2nc3c(c(N4CCC(F)C4)n2)COCC3c2ccc(F)cc2)ccc1-n1cnc(Cl)c1` (stereo in doubt) [Example 58B, N-(4-(4-chloro-1H-imidazol-1-yl)-3-methoxyphenyl)-8-(4-fluorophenyl)-4-((S)-3-fluoropyrrolidin-1-yl)-7,8-dihydro-5H-pyrano[4,3-d]pyrimidin-2-amine]: the IC50 was 120 nM. On the same count and under the same terms, under `COc1cc(Nc2nc3c(c(N4CC[C@@H](F)C4)n2)COCC3c2ccc(OC(F)(F)F)cc2)ccc1-n1cnc(Cl)c1` (some centres unmarked) [Example 123B] stands 370 nM; under `CNc1nc(Nc2ccc(C#N)cc2)nc2c1CCC2c1ccccc1` (centres unmarked) [Example 225, 4-(4-(methylamino)-7-phenyl-6,7-dihydro-5H-cyclopenta[d]pyrimidin-2-ylamino)benzonitrile], 18 nM. Turning to `C=CCC1(c2ccccc2)CCc2c(NCC)nc(Nc3ccc(-n4cnc(Cl)c4)c(OC)c3)nc21` (centres unmarked) [Example 111, N2-(4-(4-chloro-1H-imidazol-1-yl)-3-methoxyphenyl)-N4-ethyl-7-allyl-7-phenyl-6,7-dihydro-5H-cyclopenta[d]pyrimidine-2,4-diamine], the IC50 was 35 nM.

For the molecule `CNc1nc(Nc2ccc(-n3cnc(Cl)c3)c(OC)c2)nc2c1COCC2c1ccccc1` (centres unmarked) [Example 51, N^2-(4-(4-chloro-1H-imidazol-1-yl)-3-methoxyphenyl)-N^4-methyl-8-phenyl-7,8-dihydro-5H-pyrano[4,3-d]pyrimidine-2,4-diamine], the IC50 was determined as 4.5 nM. `COc1cc(Nc2nc3c(c(N4CC[C@@H](F)C4)n2)CCN(S(C)(=O)=O)C3c2ccc(F)cc2)ccc1-n1cnc(Cl)c1` (some centres unmarked) [Example 173]: the IC50 was 490 nM.

Staying with this assay, now noted: 19 h, H4 APP751 SWE clone 8.20 cells, 19 h incubation; read-out: Activity Rating (Aβ42 cellular IC50), numeric value printed without unit.
`CNc1nc(Nc2ccc(-n3cnc(Cl)c3)c(OC)c2)nc2c1CCC2c1ccc(F)cc1` (single isomer, unassigned) [Example 11A, N^2-(4-(4-Chloro-1H-imidazol-1-yl)-3-methoxyphenyl)-7-(4-fluorophenyl)-N^4-methyl-6,7-dihydro-5H-cyclopenta[d]pyrimidine-2,4-diamine]: the IC50 stood at 3.8 nM.

The same assay, now with this note: H4 APP751 SWE clone 8.20 cells, 19 h incubation; class symbols; read-out: Activity Rating (Aβ42 cellular IC50).
On to `COc1cc(Nc2nc3c(c(N4CCCC4C)n2)CCC3c2ccc(F)cc2)ccc1-n1cnc(Cl)c1` (single isomer, unassigned) [Example 20, N-(4-(4-chloro-1H-imidazol-1-yl)-3-methoxyphenyl)-7-(4-fluorophenyl)-4-(2-methylpyrrolidin-1-yl)-6,7-dihydro-5H-cyclopenta[d]pyrimidin-2-amine], for which the IC50 was 1.5 to 9.9 nM. The same measure, in the same setting: under `COc1cc(Nc2nc(N[C@H](C)C3CC3)c3c(n2)C(c2ccc(C(F)(F)F)cc2)COC3)ccc1-n1cnc(Cl)c1` (stereo partly drawn) [Example 117A, N2-(4-(4-chloro-1H-imidazol-1-yl)-3-methoxyphenyl)-N4-((R)-1-cyclopropylethyl)-8-(4-(trifluoromethyl)phenyl)-7,8-dihydro-5H-pyrano[4,3-d]pyrimidine-2,4-diamine] stands 10 to 100 nM; under `COc1cc(Nc2nc3c(c(N4CC(F)C4)n2)CCC3c2ccccc2)ccc1-n1cnc(Cl)c1` (centres unmarked) [Example 182B, N-(4-(4-chloro-1H-imidazol-1-yl)-3-methoxyphenyl)-4-(3-fluoroazetidin-1-yl)-7-phenyl-6,7-dihydro-5H-cyclopenta[d]pyrimidin-2-amine], 10 to 100 nM. For `COc1cc(Nc2nc3c(c(N4CC[C@@H](F)C4)n2)COC3c2ccc(F)cc2)ccc1-n1cnc(Cl)c1` (single isomer, unassigned) [Example 83B], the IC50 lay in the range of 10 to 100 nM. As to `CCNc1nc(Nc2ccc(-n3cnc(Cl)c3)c(OC)c2)nc2c1CCC2c1ccc(OC(F)(F)F)cc1` (single isomer, unassigned) [Example 98A, N^2-(4-(4-Chloro-1H-imidazol-1-yl)-3-methoxyphenyl)-N^4-ethyl-7-(4-(trifluoromethoxy)phenyl)-6,7-dihydro-5H-cyclopenta[d]pyrimidine-2,4-diamine], the IC50 is 1.5 to 9.9 nM. In the case of `COc1cc(Nc2nc3c(c(N4CC(F)(F)C4)n2)COCC3c2ccc(Cl)cc2)ccc1-n1cnc(Cl)c1` (single isomer, unassigned) [Example 66A, N-(4-(4-chloro-1H-imidazol-1-yl)-3-methoxyphenyl)-8-(4-chlorophenyl)-4-(3,3-difluoroazetidin-1-yl)-7,8-dihydro-5H-pyrano[4,3-d]pyrimidin-2-amine], the IC50 lay in the range of 100 to 1000 nM.

The same assay, now with this note: H4 APP751 SWE clone 8.20 cells, 19 h incubation; read-out: Activity Rating (Aβ42 cellular IC50), numeric value.
For `COc1cc(Nc2nc3c(c(N4CC(C)(OC)C4)n2)CCC3c2ccc(F)cc2)ccc1-n1cnc(C)n1` (centres unmarked) [Example 192, 7-(4-fluorophenyl)-4-(3-methoxy-3-methylazetidin-1-yl)-N-(3-methoxy-4-(3-methyl-1H-1,2,4-triazol-1-yl)phenyl)-6,7-dihydro-5H-cyclopenta[d]pyrimidin-2-amine], the IC50 turned out to be 64 nM.
